The test system of data set [1] is 02K cell line. Put plainly: Differentiation marker Western blot (PAX3, POU5F1, KLF4) in differentiating 02K. Type of data set: cell-based, porcine. Conditions: CHIR99021 supplemented basal medium, absence of DOX. From the text:
Expression levels of pluripotency markers, POU5F1 and KLF4, and the pre-myogenic paraxial mesoderm marker PAX3 in 02K cultures differentiated from the ground state in the presence of CHIR99021.
(§1) CHIR99021 inhibition 1 cell death. […] 1. As CHIR99021 repressed cell death, supported differentiation toward paraxial mesoderm by the differentiating 02K cell line and enhanced terminal differentiation by the C2C12 cell line, precedent was established to retain the compound in all culture stages.
(§2) CHIR99021 stabilizes CTNNB1 and supports differentiation from the ground state. […] TUBA detected as an internal protein loading control. FIG. 13A indicates ratios of p-CTNNB1/CTNNB1 bands. FIG. 13B indicates ratios of CTNNB1/TUBA bands. […] TUBA detection is shown as an internal protein loading control.
For orientation: Immunoblotting shows a protein as a band on a membrane.

The next data set concerns CTNNB1. Put plainly: Western blot of CTNNB1 and p-CTNNB1 in differentiating 02K. Type of data set: cell-based, porcine. The note with it: 24 h differentiation milieu transition. On the procedure: Cultures were exposed to 50 nM Calyculin A and 30 μM MG-132 for 3 hours prior to harvest to stabilize detectable levels of p-CTNNB1 for comparative analysis.
as §1, §2

Data set [2] concerns 02K cell line. Put plainly: Cell survival of differentiating 02K (phase contrast, cell adhesion, CPP32 cleavage, Annexin V). Type of data set: cell-based, porcine. Conditions: SRM basal medium without hLIF, DOX, PD032591 and PD173074; N-2 and B-27. On the procedure:
Without being bound by theory or limited by any specific representative example, it was observed that simultaneous withdrawal of both DOX and the GSK3P inhibitor CHIR99021 from the culture medium supplemented with N-2 and B-27 serum replacements precipitates massive cell death of differentiating 02K parental line within 48 h hours. Withdrawal of DOX in the presence of CHIR99021 enabled survival of the differentiating 02K. Death by differentiating 02K cells in the absence of a GSK3P inhibitor and reciprocal survival in the presence thereof was confirmed by morphology, cell adhesion assay, cleaved caspase-3 accumulation, and Annexin V labeling. […] WNT signaling plays crucial roles in both mesoderm specification from the undifferentiated ground-state pluripotency, pre-myogenic enrichment from unpatterned mesoderm and terminal differentiation of committed myocytes both in vivo and in vitro. In agreement, extended culture of the 02K line in the absence of DOX, and in the presence of a GSK3P inhibitor, supported differentiation toward the pre-myogenic paraxial mesoderm, as evidenced by the expression of PAX3 and concomitant loss of POU5F1 and KLF4 expression.
CHIR99021 inhibition 1 cell death. […] 1. […]
An axis of apoptosis and differentiation is modulated by CHIR99021. […] TUBA is detected an internal protein loading control.

Another data set has as its system murine C2C12 myoblast. Put plainly: Terminal differentiation of C2C12 myoblasts scored by size and extent of myotube formation. Type of data set: cell-based. The note with it: low-mitogen differentiation cultures (2% horse serum/DMEM).
The test system of the next data set is piPSC-derived myotubes. Put plainly: Calcium transient activity (Fluo-4 AM) in piPSC-derived myotubes. Type of data set: cell-based, porcine. Conditions: 10 mM caffeine; d6 myotubes; field of view. The text has this:
Spontaneous and Stimuli-Induced Calcium Transient Activity in piPSC-derived myotubes. To quantify contraction cycles, myotube cultures were stained with Fluo-4 AM calcium dye, washed, and image sequences were captured by confocal microscopy. Dynamic signaling events of an entire field of view (FOV) or single cells were traced and plotted over the imaging course. [s]=seconds.

The subject of another data set is 02KM cells (MyoDER). Nature of the data set: 02KM myogenic induction by E2 activation of MyoDER. The note with it: 10 μM E2, 2 d induction. Type of data set: cell-based, porcine.
A further data set relates to undifferentiated 02KM. Put plainly: Tolerance of undifferentiated 02KM to 5AC. Type of data set: cell-based, porcine. The procedure: 5AC effects. 5AC exposure prior to, during, and following E2-mediated induction of ‘MyoDER’ was introduced to enable terminal-differentiation of 02KM from myocytes into refractive, filamentous myotubes. The murine C2C12 cell line was used as positive control to screen for optimal conditions for terminal differentiation by 02KM. […] 5AC, a small-molecule epigenetic modulator, was determined previously to enable skeletal muscle transcription in cell lines non-permissive to myogenesis. Moreover, 5AC exposure was further determined to enhance terminal differentiation by the C2C12 cell line.

Description for 02KM cell line: Terminal Differentiation. […] N-2 and B-27 supplements were used exclusively as serum replacements. Cultures were differentiated for up to 6 d following under 20% O2 following induction regimens (FIG. 20A).
MyoDER was detected with an antibody raised against a MyoD peptide. […] Determinants of MYF5 activation: Western blot analyses. […] MYODER-modified piPSC were cultured 3 days in self-renewal or expansion milieu. […] TUBA is detected as an internal protein loading control.
Terminal Myogenesis of Lineage-Specified piPSC. […] DO and D6 cultures were stained for myosin heavy chain (MyHC) isoforms with a pan-MyHC monoclonal antibody, clone MF20. […] Right panel: myonuclei distribution by myotube ploidy by propidium iodide labeling and flow cytometry analysis. n=3 with standard deviation shown. […] MyoD (MYOD1), myogenin (MYOG) and desmin (DES) expression, dO-d8. TUBA is detected as an internal protein loading control. […] FIG. 20G: Transmission Electron Microscopy, d6 myotubes.
Description for 02KM cells (MyoDER): 02KM myogenic induction. 02KM cells were seeded onto culture dishes coated with poly-D lysine, murine laminin and [sequence] at a density of 4.1×10^3 cells/cm^2 and cultured under 5% O2 in self-renewal medium for 3 d.

`Cc1c[nH]c(-c2cnc(NCCNc3ccc(C#N)cn3)nc2-c2ccc(Cl)cc2Cl)n1` [CHIR99021]: the “pre-myogenic paraxial mesoderm lineage specification (PAX3 expression)” value in the data set on 02K cell line [1] was “supported pre-myogenic paraxial mesoderm lineage specification of differentiating 02K”. The “CTNNB1 stabilization and phosphorylation status” value with CTNNB1 is “stabilizes and modulates the phosphorylation status of the GSK3P substrate, CTNNB1”. Besides, the “cell survival during differentiation” value in the data set on 02K cell line [2] is listed as “supported both cell survival during differentiation”. Further, the “terminal differentiation of C2C12 into multi-nucleated myotubes” value in the data set on murine C2C12 myoblast is given as “enhanced the terminal differentiation of the myogenic murine C2C12 cell line into multi-nucleated myotubes”.

Take `Cn1c(=O)c2c(ncn2C)n(C)c1=O` [caffeine]: the calcium transient activation result with piPSC-derived myotubes is given as “FOV calcium transient activation of d6 myotubes”.

With `C[C@]12CC[C@@H]3c4ccc(O)cc4CC[C@H]3[C@@H]1CC[C@@H]2O` [E2, 17-β Estradiol], in the data set with 02KM cells (MyoDER), the “myogenic lineage specification (spindle-like morphology, MYOG, NCAM)” value was “myogenic lineage specification following 2 d induction culture was confirmed”.

Regarding `Nc1ncn([C@@H]2O[C@H](CO)[C@@H](O)[C@H]2O)c(=O)n1` [5AC, 5-Aza-Cytidine], the “MYF5 expression in 02KM derived myocytes” value in the data set with 02KM cell line (5AC 72 hours preceding DOX withdrawal and 48 hours during E2 induction) is “MYF5 expression was enhanced”. Further, in the data set on 02KM cell line (5AC during expansion and induction regimens), the “myotube morphology during terminal differentiation” value was “formed refractive, anisotropic myotubes”. Also, the highest dose tolerated with undifferentiated 02KM was determined as 250 nM.
